In patent US20110166112A1, “METHOD FOR STIMULATING PLATELET PRODUCTION” (Eisai, Inc., priority 2009, published 2011):
Where “and” joins values, the source holds several entries; their conditions need not be identical. Identical values can stand only once.

System: subjects with chronic idiopathic thrombocytopenic purpura (ITP)
Experiment: Phase 2 double-blind placebo-controlled dose-ranging 28-day study of E5501 tablets: platelet count response (responder rate)
Type: in vivo, human
Conditions: for subjects with sustained platelet increases that met the criteria for positive response: 28 days
Method: This was a phase 2, multi-center, double-blind, randomized, placebo-controlled, dose-ranging, parallel group study of E5501 tablets, used in the treatment of subjects with chronic idiopathic thrombocytopenic purpura (ITP) refractory to or relapsed after at least one prior ITP therapy. Subjects who met all entry criteria were randomly assigned in a 3:3:3:3:1 ratio to one of the following five treatment groups dosed daily for 28 days: 1) E5501 2.5 mg; 2) E5501 5 mg; 3) E5501 10 mg; 4) E5501 20 mg; or 5) placebo (PBO). Each E5501 dosing group consisted of 15 subjects while the PBO group consisted of 5 subjects. All study subjects were evaluated weekly (days 7, 14, 21 and 28) for safety and efficacy while receiving study treatment, with a final assessment for safety and effectiveness performed 4 weeks after the last study dose (day 56) unless the subject entered the follow-on study. Platelet counts were also measured on day 3 and day 5.
The primary objective of this study was to assess platelet count response to E5501 on day 28. The response rate was defined as the proportion of subjects who were not on steroids with a screening visit B platelet count <30,000/mm^3 and who achieved a platelet count ≧50,000/mm^3, together with the proportion of subjects receiving steroids with a screening visit B platelet count ≧30,000/mm^3 but <50,000/mm^3 who achieved a platelet count ≧20,000/mm^3 above their screening visit B platelet count. Secondary objectives of the study included the evaluation of other markers of effectiveness, including changes in peripheral blood platelet count, the proportion of subjects who achieved a platelet count ≧50,000/mm^3 and ≧100,000/mm^3, and the proportion of subjects who achieved a doubling of their platelet count at screening visit B and the assessment of the safety and tolerability of E5501.
Primary efficacy endpoint. The primary endpoint in this study was E5501 responder rate on day 28. A responder is defined as a subject with screening visit B platelet count <30,000/mm^3 who achieves a platelet count ≧50,000/mm^3 or a subject receiving steroids with a screening visit B platelet count ≧30,000/mm^3 but <50,000/mm^3 who achieves a platelet count ≧20,000/mm^3 above their screening visit B platelet count.
The secondary endpoints included changes from screening visit B in peripheral blood platelet counts over time; the proportion of subjects who achieved a platelet count of ≧50,000/mm^3 or ≧100,000/mm^3 on day 28 and the proportion of subjects whose platelet count doubled compared to their platelet count at Screening Visit B.
The populations of interest were defined as follows: • The randomized population included all subjects who were randomized into the study. • The safety population included all randomized subjects who receive at least one dose of study drug and have at least one safety assessment. • The pharmacokinetic (PK) population included all subjects who provided blood sample for analysis of E5501. A subject was included in this population if the subject had at least one blood draw for PK assessment. • The full analysis set (FAS) included all subjects who provided adequate data to derive at least one efficacy assessment. […] The day 28 visit window was defined to be from day 25, to last dose day+1, inclusively; • Other major protocol violations that impacted the platelet endpoint evaluation. Results from Planned Analyses
Primary Efficacy Endpoint. The analysis of efficacy was performed both on the FAS population and the PP population at day 28 visit with LOCF and observed case (OC) approaches. The primary analysis population was the FAS. Fisher's exact test was used to examine the difference of response rates among each treatment pair. All p-values are nominal without adjustment for multiplicity.
Secondary Efficacy Endpoint. Analyses for secondary efficacy endpoints were performed by treatment group and by analysis visit using both LOCF and OC methods. […]

[1] = Day 3, FAS, Observed Case, 2.5 mg
[2] = Day 3, FAS, Observed Case, 5 mg
[3] = Day 3, FAS, Observed Case, 10 mg
[4] = Day 3, FAS, Observed Case, 20 mg
[5] = Day 3, FAS, Observed Case, Total E5501
[6] = Day 5, FAS, Observed Case, 2.5 mg
[7] = Day 5, FAS, Observed Case, 5 mg
[8] = Day 5, FAS, Observed Case, 10 mg
[9] = Day 5, FAS, Observed Case, 20 mg
[10] = Day 5, FAS, Observed Case, Total E5501
[11] = Day 28, Baseline Platelet Cnt. >15K/mm^3, 2.5 mg
[12] = Day 28, Baseline Platelet Cnt. >15K/mm^3, 5 mg
[13] = Day 28, Baseline Platelet Cnt. >15K/mm^3, 10 mg
[14] = Day 28, Baseline Platelet Cnt. >15K/mm^3, 20 mg
[15] = Day 28, Baseline Platelet Cnt. >15K/mm^3, Total E5501
[16] = Day 28, Baseline Platelet Cnt. ≦15K/mm^3, 2.5 mg
[17] = Day 28, Baseline Platelet Cnt. ≦15K/mm^3, 5 mg
[18] = Day 28, Baseline Platelet Cnt. ≦15K/mm^3, 10 mg
[19] = Day 28, Baseline Platelet Cnt. ≦15K/mm^3, 20 mg
[20] = Day 28, Baseline Platelet Cnt. ≦15K/mm^3, Total E5501
[21] = Day 28, Full Analysis Population, LOCF, 2.5 mg
[22] = Day 28, Full Analysis Population, LOCF, 5 mg
[23] = Day 28, Full Analysis Population, LOCF, 10 mg
[24] = Day 28, Full Analysis Population, LOCF, 20 mg
[25] = Day 28, Full Analysis Population, LOCF, Total E5501
[26] = Day 28, No Previous History of Splenectomy, 2.5 mg
[27] = Day 28, No Previous History of Splenectomy, 5 mg

Compound: O=C(Nc1nc(-c2cc(Cl)cs2)c(N2CCN(C3CCCCC3)CC2)s1)c1cnc(N2CCC(C(=O)O)CC2)c(Cl)c1 [E5501, 1-(3-chloro-5-{[4-(4-chlorothiophen-2-yl)-5-(4-cyclohexylpiperazin-1-yl)thiazol-2-yl]carbamoyl}pyridine-2-yl)piperidine-4-carboxylic acid]
- subjects refractory to splenectomy who responded (20 mg): 66.7%
- reduction in the response rate from day 7 to 28 days (20 mg dose group): about 15%
- platelet counts from baseline (FIG. 1) (28 day study period, 2.5-20 mg): markedly increased platelet counts from baseline
- subjects with sustained platelet increases that met the criteria for positive response (5 mg): 28.6%
- subjects with sustained platelet increases that met the criteria for positive response (10 mg): 41.7%
- subjects with sustained platelet increases that met the criteria for positive response (20 mg): 76.9% and ~80%
- Responder, No [1]: 4 (100.0) n (%)
- Responder, Yes [1]: 0 n (%)
- Responder, No [2]: 3 (100.0) n (%)
- Responder, Yes [2]: 0 n (%)
- Responder, No [3]: 2 (100.0) n (%)
- Responder, Yes [3]: 0 n (%)
- Responder, No [4]: 3 (75.0) n (%)
- Responder, Yes [4]: 1 (25.0) n (%)
- Responder, No [5]: 12 (92.3) n (%)
- Responder, Yes [5]: 1 (7.7) n (%)
- Responder, No [6]: 4 (100.0) n (%)
- Responder, Yes [6]: 0 n (%)
- Responder, No [7]: 2 (33.3) n (%)
- Responder, Yes [7]: 4 (66.7) n (%)
- Responder, No [8]: 3 (75.0) n (%)
- Responder, Yes [8]: 1 (25.0) n (%)
- Responder, No [9]: 4 (80.0) n (%)
- Responder, Yes [9]: 1 (20.0) n (%)
- Responder, No [10]: 13 (68.4) n (%)
- Responder, Yes [10]: 6 (31.6) n (%)
- Nonresponder (Day 7, FAS, LOCF, 2.5 mg): 14 (93.3) n (%)
- Responder (Day 7, FAS, LOCF, 2.5 mg): 1 (6.7) n (%)
- Nonresponder (Day 7, FAS, LOCF, 5 mg): 5 (33.3) n (%)
- Responder (Day 7, FAS, LOCF, 5 mg): 10 (66.7) n (%)
- Nonresponder (Day 7, FAS, LOCF, 10 mg): 5 (35.7) n (%)
- Responder (Day 7, FAS, LOCF, 10 mg): 9 (64.3) n (%)
- Nonresponder (Day 7, FAS, LOCF, 20 mg): 1 (6.7) n (%)
- Responder (Day 7, FAS, LOCF, 20 mg): 14 (93.3) n (%)
- Nonresponder (Day 7, FAS, LOCF, Total E5501): 25 (42.4) n (%)
- Responder (Day 7, FAS, LOCF, Total E5501): 34 (57.6) n (%)
- Nonresponder (Day 14, FAS, LOCF, 2.5 mg): 12 (80.0) n (%)
- Responder (Day 14, FAS, LOCF, 2.5 mg): 3 (20.0) n (%)
- Nonresponder (Day 14, FAS, LOCF, 5 mg): 6 (40.0) n (%)
- Responder (Day 14, FAS, LOCF, 5 mg): 9 (60.0) n (%)
- Nonresponder (Day 14, FAS, LOCF, 10 mg): 3 (21.4) n (%)
- Responder (Day 14, FAS, LOCF, 10 mg): 11 (78.6) n (%)
- Nonresponder (Day 14, FAS, LOCF, 20 mg): 1 (6.7) n (%)
- Responder (Day 14, FAS, LOCF, 20 mg): 14 (93.3) n (%)
- Nonresponder (Day 14, FAS, LOCF, Total E5501): 22 (37.3) n (%)
- Responder (Day 14, FAS, LOCF, Total E5501): 37 (62.7) n (%)
- Nonresponder (Day 21, FAS, LOCF, 2.5 mg): 13 (86.7) n (%)
- Responder (Day 21, FAS, LOCF, 2.5 mg): 2 (13.3) n (%)
- Nonresponder (Day 21, FAS, LOCF, 5 mg): 6 (40.0) n (%)
- Responder (Day 21, FAS, LOCF, 5 mg): 9 (60.0) n (%)
- Nonresponder (Day 21, FAS, LOCF, 10 mg): 7 (50.0) n (%)
- Responder (Day 21, FAS, LOCF, 10 mg): 7 (50.0) n (%)
- Nonresponder (Day 21, FAS, LOCF, 20 mg): 2 (13.3) n (%)
- Responder (Day 21, FAS, LOCF, 20 mg): 13 (86.7) n (%)
- Nonresponder (Day 21, FAS, LOCF, Total E5501): 28 (47.5) n (%)
- Responder (Day 21, FAS, LOCF, Total E5501): 31 (52.5) n (%)
- Responder, No [11]: 8 (80.0) n (%)
- Responder, Yes [11]: 2 (20.0) n (%)
- Responder, No [12]: 6 (46.2) n (%)
- Responder, Yes [12]: 7 (53.8) n (%)
- Responder, No [13]: 4 (44.4) n (%)
- Responder, Yes [13]: 5 (55.6) n (%)
- Responder, No [14]: 2 (18.2) n (%)
- Responder, Yes [14]: 9 (81.8) n (%)
- Responder, No [15]: 20 (46.5) n (%)
- Responder, Yes [15]: 23 (53.5) n (%)
- Responder, No [16]: 5 (100.0) n (%)
- Responder, Yes [16]: 0 n (%)
- Responder, No [17]: 1 (50.0) n (%)
- Responder, Yes [17]: 1 (50.0) n (%)
- Responder, No [18]: 3 (60.0) n (%)
- Responder, Yes [18]: 2 (40.0) n (%)
- Responder, No [19]: 1 (25.0) n (%)
- Responder, Yes [19]: 3 (75.0) n (%)
- Responder, No [20]: 10 (62.5) n (%)
- Responder, Yes [20]: 6 (37.5) n (%)
- Responder, No [21]: 13 (86.7) n (%)
- Responder, Yes [21]: 2 (13.3) n (%)
- Responder, No [22]: 7 (46.7) n (%)
- Responder, Yes [22]: 8 (53.3) n (%)
- Responder, No [23]: 7 (50.0) n (%)
- Responder, Yes [23]: 7 (50.0) n (%)
- Responder, No [24]: 3 (20.0) n (%)
- Responder, Yes [24]: 12 (80.0) n (%)
- Responder, No [25]: 30 (50.8) n (%)
- Responder, Yes [25]: 29 (49.2) n (%)
- Responder, No [26]: 9 (90.0) n (%)
- Responder, Yes [26]: 1 (10.0) n (%)
- Responder, No [27]: 5 (45.5) n (%)
- Responder, Yes [27]: 6 (54.5) n (%)
- Responder, No (Day 28, No Previous History of Splenectomy, 10 mg): 5 (45.5) n (%)
